Laboratory results published in patent publication US11964938B2, “3-phenyl-4-hexynoic acid derivatives as GPR40 agonists” (CELON PHARMA S.A., priority 2018, dated 2024).
Structures can show the parent of a compound that is named as a salt.

Experiments:
MRP2 = target: T1, MRP2 (Homo sapiens, UniProt Q92887); assay: Vesicular transport inhibition assay, MRP2; format: biochemical; details: membrane vesicles from HEK293 cells
T1 construct: host or cells: HEK293 (membrane vesicles)
Protocol: Experiment B4: Bile Acid Transporters Inhibition in the Liver. […] The compound was tested on a panel of 10 transporters: BSEP, MRP2, MRP3, MRP4 in a vesicular transport inhibition assay and NTCP, OAT1, OAT2v1, OATP1A2, OATP1B1, OATP1B3 in an uptake transporter inhibition assays. Vesicular transport inhibition assay was performed on membrane vesicles isolated from mammal HEK293 cells overexpressing human ABC transporters. Tested compound were incubated with vesicles and substrates for respective tested transporters. Incubation was performed in the presence of 4 mM ATP or AMP in order to differentiate between uptake by a transporter and passive diffusion into vesicles. In the case of MRP2 and MRP3, reactions were performed in the presence of 2 mM glutathione. Tested compounds were added to the reaction mixture dissolved in 0.75 μl of a solvent (1% of final incubation volume). Reaction mixtures were preincubated for 15 minutes at 37±1° C. Reactions were started by the addition of 25 μl of 12 mM MgATP (or 12 mM AMP) in test buffer, as a background control, separately preincubated.

OAT1 = target: T2, OAT1 (Homo sapiens, UniProt Q4U2R8); assay: Uptake transporter inhibition assay, OAT1; format: cell-based; details: HEK293 cells overexpressing transporter
T2 construct: host or cells: HEK293
T2 sequence (Q4U2R8 1-563): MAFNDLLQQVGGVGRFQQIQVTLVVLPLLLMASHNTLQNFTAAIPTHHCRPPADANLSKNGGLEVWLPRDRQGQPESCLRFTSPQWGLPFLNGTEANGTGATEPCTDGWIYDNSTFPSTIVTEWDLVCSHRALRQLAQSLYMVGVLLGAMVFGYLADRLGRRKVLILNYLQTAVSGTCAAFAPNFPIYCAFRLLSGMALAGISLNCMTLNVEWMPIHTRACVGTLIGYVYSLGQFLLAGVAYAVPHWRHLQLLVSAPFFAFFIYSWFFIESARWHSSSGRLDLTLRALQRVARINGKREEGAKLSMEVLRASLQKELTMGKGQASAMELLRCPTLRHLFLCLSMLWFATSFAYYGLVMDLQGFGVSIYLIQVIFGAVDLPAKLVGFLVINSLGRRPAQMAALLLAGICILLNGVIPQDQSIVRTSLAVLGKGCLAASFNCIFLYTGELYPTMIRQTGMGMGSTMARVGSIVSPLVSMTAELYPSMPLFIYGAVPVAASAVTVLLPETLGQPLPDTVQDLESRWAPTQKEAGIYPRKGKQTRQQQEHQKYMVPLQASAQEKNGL
Protocol: (§1) Experiment B4: Bile Acid Transporters Inhibition in the Liver.
(§2) The compound was tested on a panel of 10 transporters: BSEP, MRP2, MRP3, MRP4 in a vesicular transport inhibition assay and NTCP, OAT1, OAT2v1, OATP1A2, OATP1B1, OATP1B3 in an uptake transporter inhibition assays.
(§3) Transporter uptake inhibition test was performed on mammal HEK293 cells overexpressing of a respective transporter. Cells were cultured at 37±1° C. and seeded on 96-well tissue culture plate at 1×10^5/well. Substrate was removed prior to experiment and cells were washed twice with 100 μl of respective buffer (HK pH 7.4 for OATP1B1 and HBSS pH 7.4 for NTCP, OAT1, OAT2v1, OATP1A2, and OATP1B3). Uptake studies were performed at 37±1° C. in 50 μl of respective buffer containing radioactively tagged substrate and tested compound or solvent.
(§4) After experiment cells were washed twice with 100 μl of ice-cold respective buffer and lysed with 50 μl of 0.1M NaOH. Transport of radioactively tagged substrate was determined by scintillation counter measurement.

OAT2v1 = target: T3, OAT2v1 (Homo sapiens, UniProt Q9Y694); assay: Uptake transporter inhibition assay, OAT2v1; format: cell-based; details: HEK293 cells overexpressing transporter
T3 construct: host or cells: HEK293
T3 sequence (Q9Y694 1-546 isoform Q9Y694-2): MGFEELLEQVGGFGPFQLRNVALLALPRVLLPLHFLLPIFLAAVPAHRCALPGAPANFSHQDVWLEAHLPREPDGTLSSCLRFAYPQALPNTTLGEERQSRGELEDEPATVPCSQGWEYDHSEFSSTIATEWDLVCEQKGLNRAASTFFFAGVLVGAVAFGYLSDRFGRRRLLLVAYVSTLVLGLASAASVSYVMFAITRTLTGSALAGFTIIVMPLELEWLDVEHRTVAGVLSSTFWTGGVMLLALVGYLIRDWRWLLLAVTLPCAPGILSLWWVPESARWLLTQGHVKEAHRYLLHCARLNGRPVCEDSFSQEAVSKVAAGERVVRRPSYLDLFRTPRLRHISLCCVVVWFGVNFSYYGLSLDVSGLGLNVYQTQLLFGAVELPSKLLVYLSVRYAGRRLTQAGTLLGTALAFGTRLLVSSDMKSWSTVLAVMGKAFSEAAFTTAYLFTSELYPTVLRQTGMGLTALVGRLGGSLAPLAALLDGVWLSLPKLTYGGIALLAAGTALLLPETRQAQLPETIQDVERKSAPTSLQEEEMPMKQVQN
Protocol: as §1, §2, §3, §4

OATP1B3 = target: T4, OATP1B3 (Homo sapiens, UniProt Q9NPD5); assay: Uptake transporter inhibition assay, OATP1B3; format: cell-based; details: HEK293 cells overexpressing transporter
T4 construct: host or cells: HEK293
T4 sequence (Q9NPD5 1-702): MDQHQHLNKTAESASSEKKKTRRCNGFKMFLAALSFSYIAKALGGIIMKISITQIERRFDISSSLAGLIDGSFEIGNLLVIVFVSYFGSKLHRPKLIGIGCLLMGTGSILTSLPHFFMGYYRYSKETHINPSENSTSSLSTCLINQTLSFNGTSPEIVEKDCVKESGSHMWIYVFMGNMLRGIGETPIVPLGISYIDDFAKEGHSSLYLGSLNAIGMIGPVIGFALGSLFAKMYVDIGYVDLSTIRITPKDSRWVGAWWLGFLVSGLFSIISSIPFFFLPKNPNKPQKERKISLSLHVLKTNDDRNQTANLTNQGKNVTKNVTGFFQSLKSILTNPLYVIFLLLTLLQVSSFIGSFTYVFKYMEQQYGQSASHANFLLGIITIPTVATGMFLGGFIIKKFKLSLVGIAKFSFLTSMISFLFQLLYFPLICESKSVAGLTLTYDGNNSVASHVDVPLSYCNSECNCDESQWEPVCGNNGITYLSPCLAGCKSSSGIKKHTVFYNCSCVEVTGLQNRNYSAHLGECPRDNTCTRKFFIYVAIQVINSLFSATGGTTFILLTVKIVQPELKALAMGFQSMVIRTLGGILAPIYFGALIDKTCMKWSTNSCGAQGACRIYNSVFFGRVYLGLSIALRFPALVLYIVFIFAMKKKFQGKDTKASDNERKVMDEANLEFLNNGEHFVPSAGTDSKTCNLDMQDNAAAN
Protocol: as §1, §2, §3, §4

T1 sequence (Q92887 whole entry): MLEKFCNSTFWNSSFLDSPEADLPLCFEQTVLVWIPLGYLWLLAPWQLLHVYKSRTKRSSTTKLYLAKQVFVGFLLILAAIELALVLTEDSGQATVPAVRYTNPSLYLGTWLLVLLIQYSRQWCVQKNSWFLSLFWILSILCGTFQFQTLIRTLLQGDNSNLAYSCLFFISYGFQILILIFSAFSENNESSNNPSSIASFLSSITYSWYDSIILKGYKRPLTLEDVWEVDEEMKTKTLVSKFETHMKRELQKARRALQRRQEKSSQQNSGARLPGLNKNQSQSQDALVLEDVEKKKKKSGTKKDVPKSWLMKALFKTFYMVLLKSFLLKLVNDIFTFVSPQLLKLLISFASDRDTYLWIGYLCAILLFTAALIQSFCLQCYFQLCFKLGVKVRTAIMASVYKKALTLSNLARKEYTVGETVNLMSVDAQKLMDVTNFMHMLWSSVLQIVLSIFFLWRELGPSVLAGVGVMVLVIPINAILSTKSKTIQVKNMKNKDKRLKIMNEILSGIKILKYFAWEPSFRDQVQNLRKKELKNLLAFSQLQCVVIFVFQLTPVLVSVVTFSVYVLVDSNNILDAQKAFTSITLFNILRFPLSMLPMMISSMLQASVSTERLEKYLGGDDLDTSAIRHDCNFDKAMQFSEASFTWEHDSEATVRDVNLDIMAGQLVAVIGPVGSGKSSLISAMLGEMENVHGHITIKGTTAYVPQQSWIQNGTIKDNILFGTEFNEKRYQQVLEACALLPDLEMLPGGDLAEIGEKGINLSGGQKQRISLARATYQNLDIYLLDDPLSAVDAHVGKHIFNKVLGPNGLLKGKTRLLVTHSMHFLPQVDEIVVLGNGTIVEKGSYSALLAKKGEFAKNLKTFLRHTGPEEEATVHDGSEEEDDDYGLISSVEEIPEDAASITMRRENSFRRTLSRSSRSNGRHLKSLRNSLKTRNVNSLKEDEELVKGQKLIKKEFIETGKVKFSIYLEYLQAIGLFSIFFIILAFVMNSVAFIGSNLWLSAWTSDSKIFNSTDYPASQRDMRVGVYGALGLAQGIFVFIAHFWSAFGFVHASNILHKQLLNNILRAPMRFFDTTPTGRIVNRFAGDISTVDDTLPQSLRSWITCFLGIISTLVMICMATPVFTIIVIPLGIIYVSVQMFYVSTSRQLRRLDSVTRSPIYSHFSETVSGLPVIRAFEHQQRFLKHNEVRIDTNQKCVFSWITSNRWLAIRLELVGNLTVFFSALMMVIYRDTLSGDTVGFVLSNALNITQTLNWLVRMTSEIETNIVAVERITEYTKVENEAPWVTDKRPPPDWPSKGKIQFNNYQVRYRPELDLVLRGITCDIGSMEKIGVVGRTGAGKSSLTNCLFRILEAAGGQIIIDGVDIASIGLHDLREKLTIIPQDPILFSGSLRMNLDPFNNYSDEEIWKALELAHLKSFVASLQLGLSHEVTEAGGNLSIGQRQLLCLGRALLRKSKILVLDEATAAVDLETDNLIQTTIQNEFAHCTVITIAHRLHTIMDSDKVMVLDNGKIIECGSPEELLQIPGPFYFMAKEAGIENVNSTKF

SMILES | IC50 (MRP2; 2 mM glutathione) | IC50 (OAT1) | IC50 (OAT2v1) | IC50 (OATP1B3) | IC50 (MRP2; symbol per footnote)
Cc1cc(OCCCS(C)(=O)=O)cc(C)c1-c1cccc(COc2ccc3c(c2)OC[C@H]3CC(=O)O)c1 [Example R1, 2[(3S)-6-({3-[4-(3-methanesulfonylpropoxy)-2,6-dimethylphenyl]-phenyl}methoxy)-2,3-dihydro-1-benzofuran-3-yl]acetic acid, reference compound] | 48.1 µM | 34.8 µM | 62.8 µM | 3.44 µM | –
CC#C[C@@H](CC(=O)O)c1ccc(OCC(C)=C(C)C)cc1 [Example S1, (3S)-3-{4-[(2,3-dimethylbut-2-en-1-yl)oxy]phenyl}hex-4-ynoic acid calcium salt] | – | 245 µM | > 300 µM | 42.9 µM | > 100 µM
